Experimental data from ChEMBL document CHEMBL5338706, “Discovery of a potent and selective proteolysis targeting chimera (PROTAC) degrader of NSD3 histone methyltransferase” (Eur J Med Chem, 2022).
Calls of active or inactive are those of the source. The calls are words filed in the database; no cut-off is given here.

Legend:
[1] = target: T1, Histone-lysine N-methyltransferase NSD3 (Homo sapiens) (UniProt Q9BZ95); experiment: Induction of NSD3 degradation in human NCI-H1703 cells at 5 uM measured within 12 hrs by Western blot analysis; type: cell-based
T1 sequence (whole entry): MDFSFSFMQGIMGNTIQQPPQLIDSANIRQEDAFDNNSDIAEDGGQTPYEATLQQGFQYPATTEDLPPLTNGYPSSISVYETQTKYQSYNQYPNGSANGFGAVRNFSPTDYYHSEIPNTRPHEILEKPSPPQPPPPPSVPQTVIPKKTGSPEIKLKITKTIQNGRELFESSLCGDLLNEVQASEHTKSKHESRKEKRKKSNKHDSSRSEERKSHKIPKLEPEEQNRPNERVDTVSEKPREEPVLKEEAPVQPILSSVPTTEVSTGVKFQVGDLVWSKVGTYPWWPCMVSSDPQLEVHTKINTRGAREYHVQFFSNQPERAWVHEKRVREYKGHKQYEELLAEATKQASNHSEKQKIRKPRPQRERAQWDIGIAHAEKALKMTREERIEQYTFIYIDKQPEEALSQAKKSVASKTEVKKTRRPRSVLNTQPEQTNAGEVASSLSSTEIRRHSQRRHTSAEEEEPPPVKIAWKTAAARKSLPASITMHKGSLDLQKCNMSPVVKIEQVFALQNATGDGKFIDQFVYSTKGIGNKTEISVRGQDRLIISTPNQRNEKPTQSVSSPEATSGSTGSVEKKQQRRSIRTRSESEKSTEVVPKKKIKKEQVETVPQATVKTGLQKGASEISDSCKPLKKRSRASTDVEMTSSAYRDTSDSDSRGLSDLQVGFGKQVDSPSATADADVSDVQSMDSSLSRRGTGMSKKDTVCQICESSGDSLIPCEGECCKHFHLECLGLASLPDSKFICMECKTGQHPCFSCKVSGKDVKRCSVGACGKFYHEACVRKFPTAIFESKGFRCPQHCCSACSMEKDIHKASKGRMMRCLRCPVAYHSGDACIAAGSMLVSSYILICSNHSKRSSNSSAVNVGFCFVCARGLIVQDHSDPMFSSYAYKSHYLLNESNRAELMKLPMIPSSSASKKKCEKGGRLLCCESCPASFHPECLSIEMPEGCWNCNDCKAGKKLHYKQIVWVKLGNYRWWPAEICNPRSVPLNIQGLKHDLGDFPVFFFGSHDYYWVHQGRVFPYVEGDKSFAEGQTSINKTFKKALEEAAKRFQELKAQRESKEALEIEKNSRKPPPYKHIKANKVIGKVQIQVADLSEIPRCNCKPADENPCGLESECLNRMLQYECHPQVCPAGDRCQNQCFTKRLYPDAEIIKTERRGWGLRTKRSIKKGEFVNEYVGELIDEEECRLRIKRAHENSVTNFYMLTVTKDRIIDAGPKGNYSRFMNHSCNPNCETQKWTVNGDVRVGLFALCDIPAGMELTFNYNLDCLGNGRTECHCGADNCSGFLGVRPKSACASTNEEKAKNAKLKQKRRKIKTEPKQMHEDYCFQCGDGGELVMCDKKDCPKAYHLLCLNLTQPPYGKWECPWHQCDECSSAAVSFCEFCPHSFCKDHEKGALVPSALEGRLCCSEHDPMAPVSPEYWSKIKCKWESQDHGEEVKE

[2] = tested on: NCI-H1703; experiment: Induction of apoptosis in human NCI-H1703 cells assessed as viable cells at 10 uM measured after 72 hrs by PI/Annexin-V staining based flow cytometry analysis (reference value: 92.7% ); type: functional; conditions: read-out: Activity
[3] = target: T1, Histone-lysine N-methyltransferase NSD3 (Homo sapiens); experiment: Induction of NSD3 degradation in human A549 cells assessed as reduction of NSD3 protein at 7.5 measured after 48 hrs by Western blot analysis; type: cell-based
[4] = tested on: A549; experiment: Antiproliferative activity against human A549 cells incubated for 3 days by CCK-8 method; type: functional, cell-based; conditions: A549, 72 h
[5] = Downregulation of CDC25A level in human NCI-H1703 cells at 3 uM by measuring fold change by Western blot analysis relative to control; type: functional
[6] = tested on: NCI-H1703; experiment: Downregulation of CDC25A level in human NCI-H1703 cells at 3 to […] by Western blot analysis; type: functional, cell-based; conditions: dose 3-7.5 µM
[7] = tested on: NCI-H1703; experiment: Induction of apoptosis in human NCI-H1703 cells assessed as late apoptotic cells at 10 uM measured after 72 hrs by PI/Annexin-V staining based flow cytometry analysis (reference value: 3.00% ); type: functional
[8] = target: Histone-lysine N-methyltransferase, H3 lysine-36 specific (Homo sapiens) (UniProt Q96L73); experiment: Induction of NSD1 degradation in human A549 cells at 5 to 10 uM incubated for 72 hrs by Western blot analysis; type: cell-based; conditions: dose 5-10 µM
[9] = tested on: NCI-H1703; experiment: Induction of apoptosis in human NCI-H1703 cells assessed as decrease in Bcl-XL protein expression at […] by measuring fold change by Western blot analysis relative to control; type: functional; conditions: dose 7.5 µM
[10] = tested on: NCI-H1703; experiment: Induction of cell cycle arrest in human NCI-H1703 cells assessed as increase accumulation of cells at G2/M phase at […] incubated for 48 hrs by propidium iodide staining based analysis; type: functional; conditions: dose 7.5 µM
[11] = Downregulation of Cyclin D1 level in human NCI-H1703 cells at 5 uM by measuring fold change by Western blot analysis relative to control; type: functional
[12] = target: T1, Histone-lysine N-methyltransferase NSD3 (Homo sapiens); experiment: Induction of NSD3 degradation in human NCI-H1703 cells assessed as reduction in H3K36me3 methylation incubated for 72 hrs by Western blot analysis; type: cell-based; conditions: dose 3-7.5 µM
[13] = Inhibition of clone formation in human NCI-H1703 cells at 3 uM incubated for 10 days with media replenishment for every 5 days by crystal violet staining based analysis relative to control; type: functional; conditions: NCI-H1703, 240 h, time 10 day
[14] = tested on: NCI-H520; experiment: Downregulation of CDC25A level in human NCI-H520 cells at 3 to […] by Western blot analysis; type: functional, cell-based; conditions: dose 3-7.5 µM
[15] = Downregulation of Cyclin D1 level in human NCI-H520 cells at […] by measuring fold change by Western blot analysis relative to control; type: functional; conditions: dose 7.5 µM
[16] = tested on: NCI-H1703; experiment: Induction of apoptosis in human NCI-H1703 cells assessed as late apoptotic cells at 3 uM measured after 72 hrs by PI/Annexin-V staining based flow cytometry analysis (reference value: 3.00% ); type: functional
[17] = tested on: NCI-H1703; experiment: Induction of apoptosis in human NCI-H1703 cells assessed as viable cells at […] measured after 72 hrs by PI/Annexin-V staining based flow cytometry analysis (reference value: 92.7% ); type: functional; conditions: dose 7.5 µM, read-out: Activity
[18] = tested on: NCI-H1703; experiment: Downregulation of CDC25A in human NCI-H1703 cells at […] measured after 72 hrs by RNA sequencing assay; type: functional, cell-based; conditions: dose 7.5 µM
[19] = tested on: NCI-H1703; experiment: Induction of apoptosis in human NCI-H1703 cells assessed as viable cells at 3 uM measured after 72 hrs by PI/Annexin-V staining based flow cytometry analysis (reference value: 92.7% ); type: functional; conditions: read-out: Activity
[20] = Downregulation of c-Myc level in human NCI-H520 cells at […] by measuring fold change by Western blot analysis relative to control; type: functional; conditions: dose 7.5 µM

Chain of Histone-lysine N-methyltransferase, H3 lysine-36 specific (Homo sapiens) (Q96L73 whole entry): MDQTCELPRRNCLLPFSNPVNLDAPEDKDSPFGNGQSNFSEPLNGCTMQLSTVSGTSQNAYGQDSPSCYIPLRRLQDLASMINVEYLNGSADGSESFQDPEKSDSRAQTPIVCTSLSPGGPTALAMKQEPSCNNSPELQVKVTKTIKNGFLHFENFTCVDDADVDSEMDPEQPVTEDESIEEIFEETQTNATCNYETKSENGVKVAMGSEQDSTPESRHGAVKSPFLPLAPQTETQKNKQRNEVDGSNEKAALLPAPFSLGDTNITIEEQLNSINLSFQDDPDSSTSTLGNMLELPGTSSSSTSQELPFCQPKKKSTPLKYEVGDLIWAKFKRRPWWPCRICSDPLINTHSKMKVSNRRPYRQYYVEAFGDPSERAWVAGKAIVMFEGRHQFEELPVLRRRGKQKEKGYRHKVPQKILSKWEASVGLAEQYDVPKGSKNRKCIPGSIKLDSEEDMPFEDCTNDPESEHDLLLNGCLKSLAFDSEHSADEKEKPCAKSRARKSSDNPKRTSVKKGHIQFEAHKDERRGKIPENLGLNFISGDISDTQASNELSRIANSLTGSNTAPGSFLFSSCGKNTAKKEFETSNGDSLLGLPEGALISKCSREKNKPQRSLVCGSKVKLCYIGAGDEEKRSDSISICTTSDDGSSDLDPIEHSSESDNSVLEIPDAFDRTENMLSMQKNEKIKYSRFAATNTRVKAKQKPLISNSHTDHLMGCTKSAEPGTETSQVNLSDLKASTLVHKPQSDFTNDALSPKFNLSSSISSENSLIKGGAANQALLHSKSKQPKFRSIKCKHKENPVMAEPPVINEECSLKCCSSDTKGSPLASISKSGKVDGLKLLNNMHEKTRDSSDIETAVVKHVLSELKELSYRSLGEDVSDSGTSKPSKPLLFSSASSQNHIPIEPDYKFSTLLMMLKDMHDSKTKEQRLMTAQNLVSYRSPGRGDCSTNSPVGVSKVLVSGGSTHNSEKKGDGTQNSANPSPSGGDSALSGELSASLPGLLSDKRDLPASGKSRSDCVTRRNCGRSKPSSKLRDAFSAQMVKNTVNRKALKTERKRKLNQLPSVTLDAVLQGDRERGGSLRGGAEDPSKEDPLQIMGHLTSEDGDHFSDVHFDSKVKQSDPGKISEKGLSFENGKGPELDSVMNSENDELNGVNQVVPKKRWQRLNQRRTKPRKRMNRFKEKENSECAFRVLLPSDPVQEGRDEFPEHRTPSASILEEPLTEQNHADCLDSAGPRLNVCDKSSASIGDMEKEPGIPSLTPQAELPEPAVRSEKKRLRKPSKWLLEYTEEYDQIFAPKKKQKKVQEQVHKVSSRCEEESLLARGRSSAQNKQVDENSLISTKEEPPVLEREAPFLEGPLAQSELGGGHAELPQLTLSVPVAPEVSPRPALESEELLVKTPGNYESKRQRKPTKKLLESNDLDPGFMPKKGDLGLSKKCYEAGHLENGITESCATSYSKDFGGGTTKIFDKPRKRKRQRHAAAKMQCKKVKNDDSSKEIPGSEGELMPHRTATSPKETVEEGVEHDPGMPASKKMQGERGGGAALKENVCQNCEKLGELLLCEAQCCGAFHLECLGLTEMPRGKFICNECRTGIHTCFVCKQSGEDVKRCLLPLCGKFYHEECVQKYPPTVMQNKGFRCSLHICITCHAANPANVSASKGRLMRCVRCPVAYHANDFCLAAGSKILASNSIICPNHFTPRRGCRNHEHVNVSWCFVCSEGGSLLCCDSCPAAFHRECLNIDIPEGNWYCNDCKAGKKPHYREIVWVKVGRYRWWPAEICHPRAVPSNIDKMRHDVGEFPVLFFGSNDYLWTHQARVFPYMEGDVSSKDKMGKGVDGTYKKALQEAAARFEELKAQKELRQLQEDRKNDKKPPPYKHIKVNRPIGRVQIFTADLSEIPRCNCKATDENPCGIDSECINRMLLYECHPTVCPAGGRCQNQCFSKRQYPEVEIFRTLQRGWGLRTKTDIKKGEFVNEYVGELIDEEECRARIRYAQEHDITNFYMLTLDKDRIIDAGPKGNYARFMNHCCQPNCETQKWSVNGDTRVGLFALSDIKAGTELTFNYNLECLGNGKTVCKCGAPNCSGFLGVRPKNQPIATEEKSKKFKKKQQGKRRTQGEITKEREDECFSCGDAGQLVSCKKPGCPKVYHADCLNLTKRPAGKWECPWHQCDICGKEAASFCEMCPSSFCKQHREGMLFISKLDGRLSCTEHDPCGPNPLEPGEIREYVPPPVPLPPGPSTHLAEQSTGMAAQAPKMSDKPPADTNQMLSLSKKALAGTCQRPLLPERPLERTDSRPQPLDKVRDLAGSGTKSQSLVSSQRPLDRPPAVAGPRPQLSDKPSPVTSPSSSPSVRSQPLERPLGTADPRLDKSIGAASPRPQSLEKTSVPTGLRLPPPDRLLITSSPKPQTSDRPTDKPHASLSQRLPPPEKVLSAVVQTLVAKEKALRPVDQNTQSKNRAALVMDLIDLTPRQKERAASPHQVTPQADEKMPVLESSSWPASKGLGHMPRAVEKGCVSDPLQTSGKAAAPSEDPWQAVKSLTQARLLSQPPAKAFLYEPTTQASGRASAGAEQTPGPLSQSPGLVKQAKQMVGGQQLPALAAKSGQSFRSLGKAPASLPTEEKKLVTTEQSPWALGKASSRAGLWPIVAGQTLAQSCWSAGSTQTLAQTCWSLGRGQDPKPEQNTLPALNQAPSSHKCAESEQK

Activity [1]: Active
Activity [3]: Active
IC50 [4]: 5.49 µM
Activity [8]: inactive
Activity [12]: Dose-Dependent Effect
SMILES: Cc1cc(CNCCCCCCCCCCC(=O)N[C@H](C(=O)N2C[C@H](O)C[C@H]2C(=O)N[C@@H](C)c2ccc(-c3scnc3C)cc2)C(C)(C)C)cc(C)c1-c1ncn(C)c1-c1ccnc2cc(F)ccc12
viability at 10 µM [2]: 7.76%
fold change (FC) [5]: 0.81
Activity [6]: Active
Activity [7]: 62.9%
fold change (FC) [9]: 0.67
Activity [10]: Active
fold change (FC) [11]: 0.69
inhibition at 3 µM [13]: 100%
Activity [14]: Active
fold change (FC) [15]: 0.62
Activity [16]: 3%
viability at […] [17]: 66.7%
Activity [18]: Active
viability at 3 µM [19]: 94.2%
fold change (FC) [20]: 0.78
